# From PubChem BioAssay AID977605 (Broad Institute, 2014)
# Active and inactive are the calls of the source.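 How the source made its calls: active means fitted curve reaches 40% activation below the top valid tested dose, in every test run; inconclusive means test runs disagree on the call; inactive means the rest, including effects opposite to the expected direction.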
# Assay: endothelial E-selectin upregulation by compounds – imaging, HUVEC, cherry-picked samples, dose response (AID 977605);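 further: signal is the share of imaged cells scored positive for E-selectin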
# Conditions: HUVEC E-selectin immunostaining, at 19.5 µM (top of the series), percent of TNF-alpha response over vehicle
row,Compound,activation
1,C[C@@H]1CN([C@@H](C)CO)C(=O)c2cccc(NC(=O)CCCCCC(=O)Nc3ccccc3N)c2O[C@H]1CN(C)S(=O)(=O)c1cn(C)cn1,0.292% (inactive)
2,Cc1nn(CCS(=O)(=O)c2ccc(Cl)cc2)c(C)c1Br,0.08% (inactive)
3,Cc1ccc(CCNC(=O)C2CCC(CNc3c(N4CCC(C)CC4)c(=O)c3=O)CC2)cc1 (configuration not stated),-0.022% (inactive)
4,CCN(CC)CCN(C(=O)Cn1nnc(-c2ccc(C)o2)n1)C(C(=O)NC(C)(C)C)c1cccs1 (configuration not stated),-0.044% (inactive)
5,C[C@H](CO)N1C[C@H](C)[C@@H](CN(C)Cc2ccc(C(F)(F)F)cc2)Oc2ccc(NC(=O)CCC(F)(F)F)cc2C1=O,0.441% (inactive)
6,C[C@H](CO)N1C[C@H](C)[C@H](CN(C)C(=O)Nc2ccccc2)Oc2ccc(NS(C)(=O)=O)cc2C1=O,-0.163% (inactive)
7,COc1ccc(NC(=O)N(C)C[C@H]2Oc3ccc(N(C)C)cc3CC(=O)N([C@H](C)CO)C[C@@H]2C)cc1,-0.19% (inactive)
8,CCOc1ccc2ncc(S(=O)(=O)c3ccc(C)cc3)c(N3CCC4(CC3)OCCO4)c2c1,-0.045% (inactive)
9,COc1ccc(CN(C)C[C@@H]2Oc3ccc(NC(=O)Nc4ccc(F)cc4)cc3CC(=O)N([C@@H](C)CO)C[C@@H]2C)cc1,0.025% (inactive)
10,CNS(=O)(=O)c1ccc(NC(=O)C2CC(=O)N(c3ccc(Cl)cc3)C2)cc1 (configuration not stated),-0.269% (inactive)
11,C[C@@H]1CN([C@H](C)CO)C(=O)c2cccc(NC(=O)C3CCOCC3)c2O[C@@H]1CN(C)Cc1ccc(Oc2ccccc2)cc1,0.031% (inactive)
12,CCC(=O)N(C)C[C@H]1Oc2ncc(Br)cc2C(=O)N([C@@H](C)CO)C[C@H]1C,-0.195% (inactive)
13,C[C@H]1CN([C@@H](C)CO)C(=O)c2cccc(NC(=O)c3ccncc3)c2O[C@@H]1CN(C)Cc1ccc(C(=O)Nc2ccccc2N)cc1,0.014% (inactive)
14,Cn1nc(C(=O)NNC(=O)c2ccccc2Br)c2ccccc2c1=O,-0.008% (inactive)
15,C[C@H]1CN([C@@H](C)CO)C(=O)Cc2cc(NS(=O)(=O)c3ccc(F)cc3)ccc2O[C@@H]1CN(C)S(=O)(=O)c1ccc(Cl)cc1,-0.047% (inactive)
16,C[C@@H]1CN([C@H](C)CO)C(=O)Cc2cc(NS(=O)(=O)c3ccc(F)cc3)ccc2O[C@H]1CN(C)S(=O)(=O)c1ccc(Cl)cc1,5.23% (inactive)
17,C[C@H](CO)N1C[C@H](C)[C@@H](CN(C)S(=O)(=O)c2ccccc2)Oc2ccc(NC(=O)Nc3ccc(C(F)(F)F)cc3)cc2C1=O,0.863% (inactive)
18,CCOC(=O)[C@]12CCCC=C1N(CCC1=CCCCC1)C(=O)[C@H](CC(=O)NCCC(C)C)C2,7.1% (inactive)
19,COc1ccc(S(=O)(=O)Nc2ccc3c(c2)C(=O)N([C@@H](C)CO)C[C@@H](C)[C@@H](CN(C)Cc2ccc(C(=O)Nc4ccccc4N)cc2)O3)cc1,1.66% (inactive)
20,C[C@H](CO)N1C[C@H](C)[C@H](CN(C)Cc2ccncc2)Oc2c(NC(=O)Nc3ccc(F)cc3)cccc2C1=O,-0.19% (inactive)
21,COc1ccccc1N1CCN(C(=O)c2ccco2)CC1,1.75% (inactive)

# Same assay, conditions: HUVEC E-selectin immunostaining, at 21 µM (top of the series), percent of TNF-alpha response over vehicle
row,Compound,activation
1,CC(C)NC(=O)Nc1ccc2c(c1)CC(=O)N([C@H](C)CO)C[C@@H](C)[C@@H](CN(C)Cc1ccc3c(c1)OCO3)O2,-0.173% (inactive)
2,CC(C)NC(=O)N(C)C[C@@H]1Oc2ccc(NC(=O)Cn3cnnn3)cc2C(=O)N([C@H](C)CO)C[C@H]1C,-0.15% (inactive)
3,COc1ccc(S(=O)(=O)Nc2ccc3c(c2)C(=O)N([C@@H](C)CO)C[C@@H](C)[C@@H](CN(C)Cc2ccc(Cl)c(Cl)c2)O3)cc1,-0.053% (inactive)
4,C[C@@H]1CN([C@H](C)CO)C(=O)Cc2cc(NC(=O)Cc3cn(C)c4ccccc34)ccc2O[C@@H]1CN(C)Cc1ccc(C(F)(F)F)cc1,0.433% (inactive)
5,CC(C)NC(=O)Nc1cccc2c1O[C@H](CN(C)Cc1ccncc1)[C@@H](C)CN([C@H](C)CO)C2=O,0.115% (inactive)
6,C[C@@H]1CN([C@@H](C)CO)C(=O)c2cccc(NC(=O)c3ccncc3)c2O[C@H]1CN(C)C(=O)Nc1cccc2ccccc12,1.89% (inactive)
